In patent US20030186888A1, “Diastereo analog of peptide SPFK-amide with selective anti-microbial activity and a method thereof” (priority 2002, published 2003):
Entries after “also recorded” stand apart in the source; their conditions may differ. Square brackets hold non-standard residues; d marks the D form. Peptide text beside a SMILES is read from it.

Columns and labels:
Format in all cases: cell-based
rat erythrocytes = test system: rat erythrocytes
Experimental: In further embodiment of the present invention, hemolytic activity of the peptides was assessed on freshly isolated rat erythrocytes. Heparinized rat blood in saline was initially centrifuged at 1000×g for 10 min to remove the buffy coat. The erythrocyte suspension was further washed thrice with 5 mM Hepes, pH 7.4 containing 150 mM NaCl. Aliquots of cell suspension ( 10^6 cells) in eppendorf tubes were incubated with the peptide in […]° C. for 30 min with gentle mixing. The tubes were then centrifuged and the absorbance of the supernatants was measured at 540 nm. The lysis obtained with 1% triton X 100 was taken as 100%. FIG. 5. Hemolysis of rat erythrocytes as a function of peptide concentration concentration Erythrocytes (-10^6/ml) were incubated in Hepes buffered isotonic saline containing various concentrations of SPFK analogs. SPFK (A). Other symbols same as that in FIG. 1.

microorganisms tested = test: Antimicrobial activity (growth inhibition, MIC); conditions: growth of the microorganisms tested
Experimental: (§1) In further embodiment of the present invention, for determining antimicrobial activity, antimicrobial activity was assayed as follows: Different concentrations of peptides were added to 1 ml of synthetic medium [KH2PO4, 10.5 g; K2HPC>4, 4.5 g; (NH4)2SO4, 1 g; MgSO4, 0.1 g; L-arginine, 0.1 g and glucose 1% for one litre of medium] for E. coli or nutrient broth for other microorganisms, containing an inocula of the test organism adjusted to ˜10^6 CFU/ml. Microbial growth was determined by monitoring the increase in ODeoo after incubating under aerobic conditions at 37° C. for 6-8 h (30° C. for P. aeruginosa). The bactericidal activity of the peptides was determined by plating suitably diluted cultures after incubation with the peptides on nutrient agar plates. The plates were incubated at 37° C. for 18 h for colony counting. Outer membrane permeabilization assays were done by fluorescent monitoring of uptake of N-phenyl-1-N-naphthyl amine (NPN) (26). […] The excitation monochromator was set at 350 nm and emission at 420 nm was continuously monitored after addition of the peptide from an aqueous stock solution. […] Inner membrane permeability of E. coli W 160.37 was monitored by measuring the p-galactosidase activity in preinduced cells (with 5×10′^4 M IPTG), in the presence of different concentration of the peptide using 0-nitro phenyl-3-D-galactoside (ONPG)(27).

E. coli = test: Bactericidal activity by plating and colony counting; conditions: on E. coli
Experimental: as §1

Row | Structure (SMILES) | hemolytic activity (in words) (rat erythrocytes) | antimicrobial activity / MIC (in words) (microorganisms tested) | bactericidal concentration (E. coli) | bacteriostatic concentration (E. coli)
1 | CC[C@H](C)[C@H](NC(=O)[C@H](Cc1c[nH]c2ccccc12)NC(=O)[C@H](CCCCN)NC(=O)[C@H](CO)NC(=O)[C@@H](CC(C)C)NC(=O)[C@H](Cc1ccccc1)NC(=O)[C@@H](NC(=O)[C@H](CCCCN)NC(=O)[C@@H](CC(C)C)NC(=O)[C@H](CC(C)C)NC(=O)[C@H](CCCCN)NC(=O)[C@@H]1CCCN1)[C@@H](C)O)C(=O)NCC(=O)O [DSac] (H-PKL[dL]KTF[dL]SKWIG-OH) | very little hemolytic activity |  |  | 
2 | CC[C@H](C)[C@H](NC(=O)[C@H](Cc1c[nH]c2ccccc12)NC(=O)[C@H](CCCCN)NC(=O)[C@H](CO)NC(=O)[C@@H](CC(C)C)NC(=O)[C@H](Cc1ccccc1)NC(=O)[C@@H](NC(=O)[C@H](CCCCN)NC(=O)[C@@H](CC(C)C)NC(=O)[C@H](CC(C)C)NC(=O)[C@H](CCCCN)NC(=O)[C@@H]1CCCN1)[C@@H](C)O)C(=O)NCC(N)=O [DSam] (H-PKL[dL]KTF[dL]SKWIG-NH2; N-terminus assumed) |  | exhibits activity with MIC's comparable to that of SPFK and its retro isomers; also recorded: MICs comparable to that of SPFK and the retro analogs | > 50 µg/mL | 30 µg/L
